Reference: US11066379B2 (THE TEXAS A&M UNIVERSITY SYSTEM, priority 2018, dated 2021)
Where “and” joins values, the source holds several entries; their conditions need not be identical. Equal entries are not always repeated. Entries after “also recorded” stand apart in the source; their conditions may differ.

Assays:
[1] = biological target: T1, active human CypA protein (Homo sapiens, UniProt P62937); experiment: Binding to immobilized CypA by surface plasmon resonance (SPR); conditions: SPR, immobilized CypA
T1 construct: Active human CypA full-length protein was from Abcam; purchased Abcam
T1 sequence (P62937 whole entry): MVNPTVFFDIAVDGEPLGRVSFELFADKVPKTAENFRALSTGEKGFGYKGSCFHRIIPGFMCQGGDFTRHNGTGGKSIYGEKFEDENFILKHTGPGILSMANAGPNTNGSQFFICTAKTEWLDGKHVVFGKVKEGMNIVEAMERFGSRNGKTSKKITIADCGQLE
Experimental: Sensor surface activation and ligand immobilization were performed by using HBS-EP as running buffer at a flow rate of 5 μL/min and 25° C. CM5 sensor chips were used as surface where Cyp A or D was immobilized as ligand. The CM5 chip is a glass slide coated with a thin layer of gold with a matrix of carboxymethylated dextran covalently attached. The CM5 chip was activated using an amine coupling kit. […] After activation, the ligand, 100 μg/mL of active human CypA protein dissolved in sodium acetate 10 mM at pH 4.5 was added to be immobilized over a CM5 sensor chip. Finally ethanolamine-HCl was injected to deactivate the remaining active esters and to avoid non-specific binding. […] Once analytes were tested and interaction was observed, individual binding curves were analyzed by determining the kinetic constants of analytes-CypA binding, namely, the observed rate constant (Kobs), the association rate constant (Kass), the dissociation rate constant (Kdiss), and the kinetic equilibrium dissociation constant (KD). At equilibrium, by definition, […]. The pseudo-first order association rate constants Kobs (s^-1) were determined for each compound concentration by using the 1:1 Langmuir association model of BiaEvaluation software (BiaCore, Uppsala, Sweden). Then a representation of Kobs against the corresponding concentration of each compound was done. […] From the equation of these representations, Kass, M^-1 s^-1, gradient of the plot, and […]^-1, intercept of the plot was obtained. Within these two values, the kinetic equilibrium dissociation constant KD for each analyte-CypA binding was obtained. The duration of the sample injection was 2 min at 10 μL/min flow rate. Next, dissociation of bound molecules in HBS-EP buffer flow was studied. The bound drugs were removed from the chip surface before the next injection by adding 1 M Glycine-HCl at pH 2.5 for 1 min. The association phase was used to quantify the compound-CypA or D interactions. All experiments were performed four times.

[2] = biological target: EGF-R (Homo sapiens, UniProt P00533); conditions: 100 μM; cited from earlier work
Sequence of EGF-R (P00533 25-1210, species assumed): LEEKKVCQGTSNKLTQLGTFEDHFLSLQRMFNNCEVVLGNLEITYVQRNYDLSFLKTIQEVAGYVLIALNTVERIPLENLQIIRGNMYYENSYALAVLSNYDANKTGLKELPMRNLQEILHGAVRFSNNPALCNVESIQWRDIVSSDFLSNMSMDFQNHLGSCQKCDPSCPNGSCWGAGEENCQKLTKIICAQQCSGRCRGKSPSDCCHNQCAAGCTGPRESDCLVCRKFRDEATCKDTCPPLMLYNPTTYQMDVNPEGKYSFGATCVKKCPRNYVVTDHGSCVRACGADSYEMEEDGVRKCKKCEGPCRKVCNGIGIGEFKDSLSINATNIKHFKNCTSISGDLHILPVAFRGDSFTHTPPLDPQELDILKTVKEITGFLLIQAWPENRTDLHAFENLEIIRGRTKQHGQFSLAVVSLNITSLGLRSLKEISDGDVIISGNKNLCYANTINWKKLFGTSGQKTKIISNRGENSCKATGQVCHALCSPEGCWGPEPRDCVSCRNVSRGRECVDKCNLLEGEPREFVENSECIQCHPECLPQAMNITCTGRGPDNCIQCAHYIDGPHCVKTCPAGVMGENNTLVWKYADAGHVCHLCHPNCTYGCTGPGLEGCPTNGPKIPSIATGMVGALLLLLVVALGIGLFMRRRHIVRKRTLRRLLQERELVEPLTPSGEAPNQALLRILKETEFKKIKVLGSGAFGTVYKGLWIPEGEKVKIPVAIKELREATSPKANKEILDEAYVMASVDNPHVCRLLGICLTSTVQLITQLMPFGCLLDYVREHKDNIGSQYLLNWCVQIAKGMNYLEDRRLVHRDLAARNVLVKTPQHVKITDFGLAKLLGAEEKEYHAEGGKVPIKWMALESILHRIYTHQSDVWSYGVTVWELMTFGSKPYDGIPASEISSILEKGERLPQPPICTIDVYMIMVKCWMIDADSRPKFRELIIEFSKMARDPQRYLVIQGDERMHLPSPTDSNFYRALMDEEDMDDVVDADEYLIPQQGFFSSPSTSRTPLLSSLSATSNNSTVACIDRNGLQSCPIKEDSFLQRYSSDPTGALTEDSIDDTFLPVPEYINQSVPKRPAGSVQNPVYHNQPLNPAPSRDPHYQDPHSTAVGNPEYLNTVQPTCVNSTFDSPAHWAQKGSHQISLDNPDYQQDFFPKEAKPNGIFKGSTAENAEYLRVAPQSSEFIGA

[3] = tested on: SH-SY5Y cells; experiment: Cellular toxicity in SH-SY5Y cells (MTT, 24 h); assay type: cell-based; conditions: 24 h; for cytotoxicity toward SH-SY5Y cells: 10-0.01 μM, in words
Text: (§1) The MTT (3-[4,5-dimethylthiazol-2-yl]-2,5-diphenyltetrazoliumbromide) assay was used to determine the cytotoxicity of gracilin derivatives in T lymphocytes (Burton, J. D. Methods Mol. Med., 2005, 110, 69-78) and SH-SY5Y cells and the protective effect of these compounds against H2O2 insult in neuroblastoma cells as previously described (Leiros, M., Alonso, E., Sanchez, J. A., Rateb, M. E., Ebel, R., Houssen, W. E., Jaspars, M., Alfonso, A. and Botana, L. M. ACS Chem. Neurosci., 2014, S, 71-80). Human T lymphocytes were cultured in 24 well plates at the concentration of 2.5×10^6 cells/mL and exposed to different compound concentrations (0.01, 0.1, 1 and 10 μM) added to the culture medium. Human T cells were maintained in the presence of the pure compound at 37° C. in humidified 5% CO2/95% air atmosphere for 48 h.
(§2) SH-SY5Y cells were seeded in 96-well plates at a density of 2.5×10^5 cells/mL and allowed to adhere for 24 h. At first, cells were treated only with compounds at concentrations ranging from 10-0.01 μM for 24 h to determine their possible cytotoxic effects. Experiments were carried out three times. For neuroprotective experiments, cells were treated with compounds at non-toxic concentrations (1 μM→1 nM) and 150 μM H2O2 for 6 h. Briefly, cells were washed three times with saline solution and 200 μL of MTT (500 μg/mL) dissolved in saline buffer were added to each well. Following 1 h of incubation at 37° C., the cells were disaggregated with sodium dodecyl sulphate at 5%.
Absorbance of formazan crystals was measured at 595 nm with a spectrophotometer plate reader. Saponin was used as death control and its absorbance was subtracted from the other data. All experiments were performed four times.

[4] = tested on: Interleukin-2 (IL-2) production in human T lymphocytes; experiment: Interleukin-2 release in Con A-stimulated human T lymphocytes (ELISA); assay type: cell-based; conditions: 2 h pre-treatment at non-toxic concentration, Con A 50 μg/mL 48 h
Experimental: Then, cells were stimulated with Concanavalin A (Con A) at 50 μg/mL for 48 h to induce IL-2 release. The amount of IL-2 released to the culture medium was evaluated using Human IL-2 ELISA kit. Experiments were carried out four times.

[5] = tested on: human T lymphocytes; experiment: Viability of human T lymphocytes (MTT assay, 48 h); assay type: cell-based; conditions: in words
Text: as §1
(§3) Saponin was used as cellular death control and its absorbance was subtracted from the other data. After the incubation period with compounds, assay was performed. First cells were centrifuged (1500 rpm, 5 min, 4° C.). The pellets were resuspended in saline solution with MTT (250 μg/mL) and then incubated at 37° C. during 30 min. After washing off excess MTT twice with saline solution, cells were disaggregated with H2O and sonicated for 1 min and the absorbance of the colored formazan salt was measured at 595 nm in a spectrophotometer plate reader. All experiments were performed three times.

[6] = Viability of human T lymphocytes (MTT assay, 48 h); assay type: cell-based; conditions: human; 1 μM, 48 hours; read-out: decrease in cell viability
Text: as §1, §3

[7] = biological target: T2, CypA (Homo sapiens, UniProt P62937); experiment: CypA PPIase activity inhibition; assay type: biochemical; conditions: up to 10 μM, in words
T2 construct: Active human CypA full-length protein was from Abcam; purchased Abcam
T2 sequence (P62937 whole entry): as the sequence (P62937 whole entry) above

[8] = tested on: SH-SY5Y cells; experiment: Neuroprotection against H2O2 toxicity, cell viability by MTT; assay type: cell-based, human; conditions: 150 μM H2O2 co-treatment 6 h; 0.01, 0.1 and 1 μM
Experimental: as §2, with “5%. Absorbance of formazan crystals was measured at 595 nm with a spectrophotometer plate reader. Saponin was used as death control and its absorbance was subtracted from the other data. All experiments were performed four times.” for “5%.”

[9] = tested on: SH-SY5Y cells; experiment: Intracellular ROS levels (carboxy-H2DCFDA) after H2O2; assay type: cell-based, human; conditions: 150 μM H2O2 co-treatment 6 h
Experimental: Intracellular levels of reactive oxygen species (ROS) were determined with carboxy-H2DCFDA (5-(and-6)-carboxy-2′,7′-dichlorodihydrofluorescein diacetate). This dye diffuses through the cellular membrane and is converted by cellular esterases to carboxy-H2DCFH (non-fluorescent). When carboxy-H2DCFH is oxidized by ROS, it becomes fluorescent (Halliwell, B. and Whiteman, M. Br. J. Pharmacol., 2004, 142, 231-255). Cells were seeded at a density of 2.5×10^5 cells/mL in 96-well plates and allowed to attach for 24 h. Following treatment with compounds at various concentrations (1 μM→1 nM) and 150 μM H2O2 for 6 h, SH-SY5Y cells were washed twice with serum-free culture medium. Then, carboxy-H2DCFDA 20 μM dissolved in serum-free culture medium was added to each well and the cells were incubated for 1 h at 37° C. After this incubation, the medium with the fluorescent dye was replaced with PBS and the plate was incubated for 30 min at 37° C. Fluorescence was read at 527 nm, with an excitation wavelength of 495 nm. All experiments were performed four times.

[10] = tested on: SH-SY5Y cells; experiment: Glutathione assay (Thiol Tracker Violet) after H2O2; assay type: cell-based, human; conditions: 150 μM H2O2 co-treatment 6 h, two or more concentrations
Experimental: Glutathione (GSH) levels were determined using Thiol Tracker Violet dye, which reacts with reduced thiols in cells. Reduced glutathione represents the majority of intracellular free thiols, so this probe can be used to estimate its levels in cells. Measurements were performed following manufacturer's protocol. Cells were seeded in 96-well plates at 2.5×10^5 cells/mL for 24 h and treated with compounds at various concentrations (1 μM→1 nM) and 150 μM H2O2. After 6 h, SH-SY5Y cells were washed twice with PBS and loaded with 100 μL of prewarmed Thiol Tracker Violet dye (10 μM) for 30 min at 37° C. The fluorescence was measured at 404 nm excitation and emission at 526 nm. All experiments were performed four times.

[11] = biological target: CypD (Homo sapiens, UniProt P30405); experiment: CypD enzyme inhibition assay (PPIase activity); assay type: biochemical; conditions: CypD 1 nM
Sequence of CypD (P30405 30-207): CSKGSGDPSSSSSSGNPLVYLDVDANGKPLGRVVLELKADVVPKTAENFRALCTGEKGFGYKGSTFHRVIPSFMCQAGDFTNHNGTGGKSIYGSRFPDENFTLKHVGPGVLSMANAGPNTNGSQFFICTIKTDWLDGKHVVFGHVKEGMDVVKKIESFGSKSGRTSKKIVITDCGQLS
Experimental: The inhibition of the peptidyl-prolyl cis-trans isomerase (PPIase) activity of compounds was determined by following the rate of hydrolysis of N-succinyl-Ala-Ala-Pro-Phe-pnitroanilide by chymotrypsin. CsA was used as positive control. The assay was performed as previously described (Yan, W., Qing, J., Mei, H., Nong, J., Huang, J., Zhu, J., Jiang, H., Liu, L., Zhang, L. and Li, J. Bioorg. Med. Chem. Lett., 2015, 25, 5682-5686) with small modifications. The assay buffer (20 mM Tris-HCl, 50 mM NaCl, pH 7.8), CypD (1 nM) and the compounds at concentrations ranging from 0.001 to 10 μM were pre-cooled at 4° C. for 1 h. After that time, chymotrypsin at 0.4 mg/mL in 1 mM HCl was added to each well. The reaction was initiated by the addition of the peptide (0.1 mg/mL in 500 mM LiCl in THF). The absorbance at 380 nm was monitored every 30 sec for 5 min with a spectrophotometer plate reader. The blank rates of hydrolysis (in absence of CypD) were subtracted from the rates in the presence of the enzyme. The half-maximal inhibitory concentration (IC50) was calculated by fitting the data with a log(inhibitor) vs. response model of GraphPad Prism 5.0 software. All experiments were performed four times.

[12] = tested on: SHSY5Y cells; experiment: Neuroprotective effects summarised over all five assays (viability, TMRM, ROS, GSH, mPTP); assay type: cell-based, human; conditions: 0.001, 0.01 or 0.1 μM; H2O2 challenge
Experimental: As described previously, neuroprotective agents can mediate their effects through inhibition of CypD, an isoform of CypA. […] All assays were performed at the indicated concentrations (0.001, 0.01, or 0.1 μM) based on initial cytotoxicity determined with SHSY5Y cells (Table 1).

[13] = tested on: mitochondrial membrane permeability transition pore (mPTP) in SH-SY5Y cells; experiment: Mitochondrial membrane permeability transition pore (mPTP) measurement, TBHP-induced opening; assay type: cell-based, human; conditions: 1 mM TBHP
Experimental: The blockage of mPTP by compounds was determined with the MitoProbe Transition Assay Kit following manufacturer's instructions. Briefly, SH-SY5Y human neuroblastoma cells were re-suspended in pre-warmed PBS/Ca^+2 buffer at a final concentration of 1×10^6 cells/mL. Cells were loaded with 0.01 μM Calcein-AM and incubated at 37° C. for 15 min. Then, 0.4 mM CoCl2 and compounds at selected concentrations were added and incubated for 15 min at 37° C. […] After this incubation, cells were centrifuged and re-suspended in 100 μL of PBS. Just before analyzing, 1 mM tert-butyl hydroperoxide (TBHP) was added to the samples to induce pore opening. Fluorescence intensity was measured at 488 nm excitation and 517 nm emission wavelengths by flow cytometry using the ImageStreamMKII (Amnis Corporation, Merck-Millipore) and […] software. The fluorescence of 10,000 events was analyzed with IDEASR Application vs 6.0 (Amnis Corporation, Merck-Millipore). Experiments were carried out four times.

In the case of `C/C=C1\C([C@@]2(C)CCCC(C)(C)C2)=CC[C@H]2[C@H](OC(C)=O)O[C@H](OC(C)=O)[C@@H]12` [gracilin A, reference compound], the Kd [1] is given as 2.53 ± 0.4 µM and the EGF-R inhibition [2] is given as 70%.
In the case of `CC(=O)O[C@H]1OC[C@@H]2C=C([C@]3(C)CCCC(C)(C)C3)CC[C@H]12` [Compound 29b, (1R,3aR,7aS)-5-(1,3,3-trimethylcyclohexyl)-1,3,3a,6,7,7a-hexahydroisobenzofuran-1-yl acetate], the “cytotoxicity toward SH-SY5Y cells” value [3] is reported as “led to cell death at the higher concentrations tested”, the IC50 ([3]; Homo sapiens, SH-SY5Y, read-out: IC50 (cellular toxicity)) is reported as 7.9 µM and the Kd [1] is reported as ~3 µM and 2.8 to 6.8 µM. The “Inhibition of IL-2 production” value [4] was roughly 0%, the “impact on T-cell viability” value [5] was “relatively non-toxic” and the cytotoxicity at 48 h, 1 μM [6] was 15 to 25%.
For `CC(=O)OC[C@@H]1CCC(C2(C)CCCCC2)=C[C@@H]1COC(C)=O` [Compound 27b, ((3S,4R)-1′-methyl-[1,1′-bi(cyclohexan)]-1-ene-3,4-diyl)bis(methylene) diacetate], the “cytotoxicity toward SH-SY5Y cells” value [3] was “led to cell death at the higher concentrations tested”, the “CypA PPIase inhibitory activity” value [7] was “inactive” and the “protection of cell viability against H2O2 insult” value [8] was “protected cells against H2O2 insult at almost all concentrations”. The ROS levels [9] was “diminishing ROS at two or three concentrations”, the GSH levels [10] was “recovered GSH levels” and the IC50 [11] was 0.48 µM and < 0.5 µM. The “neuroprotective / antioxidant effects based on all five assays” value [12] was “displayed significant neuroprotective effects; also recorded: significant antioxidant activity in all five assays” and the mPTP opening [13] was “prevent TBHP-induced opening”.
